Measured values reported in patent publication EP3072956A1, “Selective culture medium for polymyxin-resistant, gram-negative bacteria” (priority 2015, dated 2016).

Key:
Test in all cases: MIC determination by broth microdilution (MHB-CA, CLSI)
Assay type in all cases: cell-based
[1] = tested on: K. pneumoniae
Description: (§1) Determination of MIC values were performed by broth microdilution in Cation-Adjusted Mueller-Hinton broth (MHB-CA) according to the CLSI guidelines (Clinical and Laboratory Standards Institute). Polymyxin B and colistin (Sigma-Aldrich, Saint-Louis) were tested with or without Tween 80 over a range dilution from 0.12 to 128 µg/ml. The surfactant Tween 80, at a final concentration of 0.002%, prevents the binding of polymyxins to multi-array plastic panel. Actually, the use of Tween for determination of MIC of polymyxins is still debatable. MHB-CA broth and 5.10^5 CFU/ml of each tested strain were distributed in each well. Following the EUCAST breakpoints, strains were characterized as susceptible or resistant to polymyxins.

[2] = tested on: C. freundii
Description: as §1

[3] = tested on: B. cepacia; details: strain Bcep
Description: as §1

[4] = tested on: P. aeruginosa
Description: as §1

[5] = tested on: P. vulgaris; details: strain Pvul
Description: as §1

[6] = tested on: E. coli
Description: as §1

[7] = tested on: P. stuartii; details: strain Pstu
Description: as §1

[8] = tested on: K. oxytoca; details: strain C24
Description: as §1

[9] = tested on: M. morganii; details: strain Mmor
Description: as §1

**Q.** What does the source list for polymyxin B?
**A.** MIC ([1]; strain C27, Without Tween80): >128 mg/L; MIC ([1]; strain C112, With Tween80): 0.25 mg/L; MIC ([1]; strain C112, Without Tween80): 0.25 mg/L; MIC ([1]; strain C115, With Tween80): 0.12 mg/L; MIC ([1]; strain C115, Without Tween80): 0.5 mg/L; MIC ([1]; strain C130, With Tween80): 0.5 mg/L; MIC ([1]; strain C130, Without Tween80): 0.25 mg/L; MIC ([1]; strain C132, With Tween80): 0.5 mg/L; MIC ([1]; strain C132, Without Tween80): 0.25 mg/L; MIC ([1]; strain Kp OmpK3 5-OmpK3 6-, With Tween80): 0.12 mg/L; MIC ([1]; strain Kp OmpK3 5-OmpK3 6-, Without Tween80): 0.125 mg/L; MIC ([1]; strain Sa, With Tween80): 64 mg/L; MIC ([1]; strain Sa, Without Tween80): 64 mg/L; MIC ([1]; strain T1b, With Tween80): 64 mg/L; MIC ([1]; strain T1b, Without Tween80): 64 mg/L; MIC ([1]; strain T4, With Tween80): 32 mg/L; MIC ([1]; strain T4, Without Tween80): 32 mg/L; MIC ([1]; strain T5, With Tween80): 32 mg/L; MIC ([1]; strain T5, Without Tween80): 32 mg/L; MIC ([2]; strain 38B2, With Tween80): 0.5 mg/L; MIC ([2]; strain 38B2, Without Tween80): 0.5 mg/L; MIC ([2]; strain C136, With Tween80): 0.25 mg/L; MIC ([2]; strain C136, Without Tween80): 0.5 mg/L; MIC ([3]; With Tween80): >128 mg/L; MIC ([3]; Without Tween80): >128 mg/L; MIC ([4]; strain 38J8, With Tween80): 0.25 mg/L; MIC ([4]; strain 38J8, Without Tween80): 1 mg/L; MIC ([4]; strain ATCC 27853, With Tween80): 0.12 mg/L; MIC ([4]; strain ATCC 27853, Without Tween80): 0.5 mg/L; MIC ([4]; strain C111, With Tween80): 0.25 mg/L; MIC ([4]; strain C111, Without Tween80): 1 mg/L; MIC ([4]; strain C131, With Tween80): 0.25 mg/L; MIC ([4]; strain C131, Without Tween80): 1 mg/L; MIC ([4]; strain C133, With Tween80): 0.5 mg/L; MIC ([4]; strain C133, Without Tween80): 1 mg/L; MIC ([5]; With Tween80): >128 mg/L; MIC ([5]; Without Tween80): >128 mg/L; MIC ([6]; strain 36A6, With Tween80): 0.12 mg/L; MIC ([6]; strain 36A6, Without Tween80): 0.12 mg/L; MIC ([6]; strain 36D7, With Tween80): 0.12 mg/L; MIC ([6]; strain 36D7, Without Tween80): 0.12 mg/L; MIC ([6]; strain 38D6, With Tween80): 0.12 mg/L; MIC ([6]; strain 38D6, Without Tween80): 0.12 mg/L; MIC ([6]; strain 27563, With Tween80): 8 mg/L; MIC ([6]; strain 27563, Without Tween80): 16 mg/L; MIC ([6]; strain 27837, With Tween80): 8 mg/L; MIC ([6]; strain 27837, Without Tween80): 8 mg/L; MIC ([6]; strain 27850, With Tween80): 8 mg/L; MIC ([6]; strain 27850, Without Tween80): 8 mg/L; MIC ([6]; strain 27852, With Tween80): 4 mg/L; MIC ([6]; strain 27852, Without Tween80): 4 mg/L; MIC ([6]; strain 28509, With Tween80): 2 mg/L; MIC ([6]; strain 28509, Without Tween80): 2 mg/L; MIC ([6]; strain 30742, With Tween80): 4 mg/L; MIC ([6]; strain 30742, Without Tween80): 4 mg/L; MIC ([6]; strain ATCC 25922, With Tween80): 0.12 mg/L; MIC ([6]; strain ATCC 25922, Without Tween80): 0.25 mg/L; MIC ([6]; strain C140, With Tween80): 0.12 mg/L; MIC ([6]; strain C140, Without Tween80): 0.25 mg/L; MIC ([6]; strain Eco OmpC-OmpF-, With Tween80): 0.12 mg/L; MIC ([6]; strain Eco OmpC-OmpF-, Without Tween80): 0.125 mg/L; MIC ([7]; With Tween80): >128 mg/L; MIC ([7]; Without Tween80): >128 mg/L; MIC ([8]; With Tween80): 64 mg/L; MIC ([8]; Without Tween80): 64 mg/L; MIC ([9]; With Tween80): >128 mg/L; MIC ([9]; Without Tween80): >128 mg/L
